Literature values as cited in patent publication US11766396B2, “Kit and method for dyeing keratinous material by means of aminosilicone and a chromophoric compound” (Henkel AG & Co. KGaA, priority 2019, dated 2023).

Experiments:
[1] = 25° C.
[2] = 5% solution in water

Structure (SMILES) | solubility in water [1] | pH value of solution in water [2]
Nc1cc(S(=O)(=O)[O-])cc2cc(S(=O)(=O)[O-])c(N=Nc3ccccc3)c(O)c12.[Na+].[Na+] [Acid Red 33, diantrium salt of 5-amino-4-hydroxy-3-(phenylazo)-naphthalene-2,7-disulphonate] | 2500 µg/mL | 
O=C([O-])c1c(Cl)c(Cl)c(Cl)c(Cl)c1-c1c2c(Br)cc(=O)c(Br)c-2oc2c(Br)c(O)cc(Br)c12.O=C([O-])c1c(Cl)c(Cl)c(Cl)c(Cl)c1-c1c2c(Br)cc(=O)c(Br)c-2oc2c(Br)c(O)cc(Br)c12.[Na+].[Na+] [Acid Red 92, disodium salt of 3,4,5,6-tetrachloro-2-(1,4,5,8-tetrabromo-6-hydroxy-3-oxoxanthen-9-yl)benzoic acid] | greater than 10 g/L | 
O=C([O-])C1=NN(c2ccc(S(=O)(=O)[O-])cc2)C(=O)C1N=Nc1ccc(S(=O)(=O)[O-])cc1.[Na+].[Na+].[Na+] (centres unmarked) [Acid Yellow 23, trisodium salt of 4,5-dihydro-5-oxo-1-(4-sulfophenyl)-4-((4-sulfophenyl)azo)-1H-pyrazole-3-carboxylic acid] | highly soluble | 
O=S(=O)([O-])c1ccc(N=Nc2c(O)ccc3ccccc23)cc1.[Na+] [Acid Orange 7, sodium salt of 4-[(2-hydroxy-1-naphthyl)azo]benzene sulphonate] | more than 7 g/L | 
O=P([O-])(O)O.[K+] [Potassium dihydrogen phosphate] |  | 4.4
